Measurements from patent US11000033B2, “Ketone or oxime compound, and herbicide” (NISSAN CHEMICAL CORPORATION, priority 2014, dated 2021).

Tests used:
Format in all cases: in vivo
Apera spica-venti [1] = assay: Test Example 5: herbicidal effect by foliage application, plastic box (symbol L); settings: 320 g/ha, 3 weeks after application
In short: (§1)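 Seeds were sown in sterilized diluvial soil, covered with about 1.5 cm of soil and grown 14 days in a greenhouse at 25° C. to 30° C. An emulsifiable formulation diluted in water to a set rate was sprayed over foliage, and injury was scored 3 weeks later.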

Chenopodium album = assay: Test Example 5: herbicidal effect by foliage application, plastic box (symbol O); settings: 320 g/ha, 3 weeks after application
In short: as §1

Stellaria media = assay: Test Example 5: herbicidal effect by foliage application, plastic box (symbol P); settings: 320 g/ha, 3 weeks after application
In short: as §1

Avena fatua [2] = assay: Test Example 4: herbicidal effect by soil treatment (symbol I); settings: application herbicide amount 320 g/ha
In short: (§2)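 Seeds were sown in sterilized diluvial soil, covered with about 1.5 cm of soil, and the soil surface was sprayed with a water-diluted emulsion of the compound at a predetermined rate. Plants grew in a greenhouse at 25° C. to 30° C.; effects were scored visually 3 weeks after application.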

Digitaria ciliaris [3] = assay: Test Example 5: herbicidal effect by foliage application, plastic box (symbol F); settings: 320 g/ha, 3 weeks after application
In short: as §1

rice = assay: Test Example 4: effect on crop by soil treatment (symbol b); settings: application herbicide amount 320 g/ha
In short: (§3)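 Greenhouse culture at 25° C. to 30° C. followed sowing of seed in spots on sterilized diluvial soil with a soil cover close to 1.5 cm thick.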

Lolium multiflorum Lam. [4] = assay: Test Example 4: herbicidal effect by soil treatment (symbol K); settings: application herbicide amount 320 g/ha
In short: as §2

rapeseed [5] = assay: Test Example 4: effect on crop by soil treatment (symbol g); settings: application herbicide amount 320 g/ha
In short: as §3

Veronica persica = assay: Test Example 5: herbicidal effect by foliage application, plastic box (symbol R); settings: 320 g/ha, 3 weeks after application
In short: as §1

wheat = assay: Test Example 5: effect on crop by foliage application, plastic box (symbol e); settings: 320 g/ha, 3 weeks after application
In short: (§4)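 Crop seed is sown alongside grass and broadleaf weed species in spots in sterilized diluvial soil, then covered to a depth of about 1.5 cm. Plants grow in a greenhouse kept at 25° C. to 30° C.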

Abutilon theophrasti = assay: Test Example 5: herbicidal effect by foliage application, plastic box (symbol M); settings: 320 g/ha, 3 weeks after application
In short: as §1

Lolium multiflorum Lam. [6] = assay: Test Example 5: herbicidal effect by foliage application, plastic box (symbol K); settings: 320 g/ha, 3 weeks after application
In short: as §1

Digitaria ciliaris [7] = assay: Test Example 4: herbicidal effect by soil treatment (symbol F); settings: application herbicide amount 320 g/ha
In short: as §2

[8] = tested on: directly sowed rice plant; assay: Test Example 3: effect on crop by foliage application, Wagner pot (symbol b); settings: application herbicide amount 320 g/ha
In short: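 Alluvial soil in a 1/10000-are Wagner pot was flooded to a water depth of 0.1–0.5 cm. Echinochloa crus-galli var. crus-galli, Leptochloa chinensis, Cyperus difformis and rice were sown into it and grown in a greenhouse at 25–30 °C.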

beet = assay: Test Example 4: effect on crop by soil treatment (symbol f); settings: application herbicide amount 320 g/ha
In short: as §3

Alopecurus myosuroides = assay: Test Example 4: herbicidal effect by soil treatment (symbol J); settings: application herbicide amount 320 g/ha
In short: as §2

rapeseed [9] = assay: Test Example 5: effect on crop by foliage application, plastic box (symbol g); settings: 320 g/ha, 3 weeks after application
In short: as §4

Amaranthus retroflexus = assay: Test Example 5: herbicidal effect by foliage application, plastic box (symbol N); settings: 320 g/ha, 3 weeks after application
In short: as §1

Avena fatua [10] = assay: Test Example 5: herbicidal effect by foliage application, plastic box (symbol I); settings: 320 g/ha, 3 weeks after application
In short: as §1

Monochoria vaginalis = assay: Test Example 2: herbicidal activity, application during weed generation in submerged conditions (symbol C); settings: Table 23; application herbicide amount 320 g/ha; grade 0-5 by criteria of Test Example 1
In short: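 Weeds emerging under flooded conditions were treated with compound formulated as an emulsion and diluted with water to the intended herbicide amount, poured onto the surface of 4 cm standing water. Seeds had been co-sown in alluvial soil; plants grew at 25° C. to 30° C. and were assessed after 3 weeks.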

Apera spica-venti [11] = assay: Test Example 4: herbicidal effect by soil treatment (symbol L); settings: application herbicide amount 320 g/ha
In short: as §2

[12] = tested on: Echinochloa crus-galli var. crus-galli; assay: Test Example 4: herbicidal effect by soil treatment (symbol H); settings: application herbicide amount 320 g/ha
In short: as §2

For `CON=C(C)CC1CC(OCOC(=O)c2ccccc2)=C(c2c(C)cc(-c3ccc(Cl)cc3)cc2C)C1=O` (stereo not drawn) [6-083], the “L: Apera spica-venti, herbicidal effect (criteria of Test Example 1)” value (Apera spica-venti [1]) was 5 (Herbicidal ratio of 90% or more (almost completely withered)), the “O: Chenopodium album, herbicidal effect (criteria of Test Example 1)” value (“O: Chenopodium album, herbicidal effect” below) (Chenopodium album) was 5 (Herbicidal ratio of 90% or more (almost completely withered)) and the “P: Stellaria media, herbicidal effect (criteria of Test Example 1)” value (“P: Stellaria media, herbicidal effect” for short) (Stellaria media) was 1 (Herbicidal ratio of 5% or higher and lower than 20%). For the same compound, the “I: Avena fatua, herbicidal effect grade” value (Avena fatua [2]) was 0 (Herbicidal ratio of 5% or lower (almost no effect)), the “F: Digitaria ciliaris, herbicidal effect (criteria of Test Example 1)” value (Digitaria ciliaris [3]) was 5 (Herbicidal ratio of 90% or more (almost completely withered)) and the “b: directly sowed rice plant, effect on crop grade” value (rice) was 0 (Herbicidal ratio of 5% or lower (almost no effect)). The “K: Lolium multiflorum Lam., herbicidal effect grade” value (Lolium multiflorum Lam. [4]) was 1 (Herbicidal ratio of 5% or higher and lower than 20%), the “g: rapeseed, effect on crop grade” value (rapeseed [5]) was 0 (Herbicidal ratio of 5% or lower (almost no effect)) and the “R: Veronica persica, herbicidal effect (criteria of Test Example 1)” value (“R: Veronica persica, herbicidal effect” below) (Veronica persica) was 4 (Herbicidal ratio of 70% or higher and lower than 90%). For the same compound, the “e: wheat, effect on crop (criteria of Test Example 1)” value (“e: wheat, effect on crop” below) (wheat) was 4 (Herbicidal ratio of 70% or higher and lower than 90%), the “M: Abutilon theophrasti, herbicidal effect (criteria of Test Example 1)” value (from here on “M: Abutilon theophrasti”) (Abutilon theophrasti) was 5 (Herbicidal ratio of 90% or more (almost completely withered)) and the “K: Lolium multiflorum Lam., herbicidal effect (criteria of Test Example 1)” value (Lolium multiflorum Lam. [6]) was 4 (Herbicidal ratio of 70% or higher and lower than 90%). For the same compound, the “F: Digitaria ciliaris, herbicidal effect grade” value (Digitaria ciliaris [7]) was 5 (Herbicidal ratio of 90% or more (almost completely withered)), the “effect on crop b (directly sowed rice plant), grade 0-5” value (“effect on crop b” below) [8] was 5 (Herbicidal ratio of 90% or more (almost completely withered)) and the “f: beet, effect on crop grade” value (beet) was 0 (Herbicidal ratio of 5% or lower (almost no effect)). The “J: Alopecurus myosuroides, herbicidal effect grade” value (Alopecurus myosuroides) was 5 (Herbicidal ratio of 90% or more (almost completely withered)), the “g: rapeseed, effect on crop (criteria of Test Example 1)” value (rapeseed [9]) was 4 (Herbicidal ratio of 70% or higher and lower than 90%) and the “N: Amaranthus retroflexus, herbicidal effect (criteria of Test Example 1)” value (from here on “N: Amaranthus retroflexus”) (Amaranthus retroflexus) was 3 (Herbicidal ratio of 40% or higher and lower than 70%). The “I: Avena fatua, herbicidal effect (criteria of Test Example 1)” value (Avena fatua [10]) was 5 (Herbicidal ratio of 90% or more (almost completely withered)), the “Herbicidal effect grade, C: Monochoria vaginalis” value (from here on “Herbicidal effect grade, C”) (Monochoria vaginalis) was 4 (Herbicidal ratio of 70% or higher and lower than 90%) and the “L: Apera spica-venti, herbicidal effect grade” value (Apera spica-venti [11]) was 5 (Herbicidal ratio of 90% or more (almost completely withered)). For the same compound, the “H: Echinochloa crus-galli var. crus-galli, herbicidal effect grade” value [12] was 0 (Herbicidal ratio of 5% or lower (almost no effect)).
For `CC(=O)CC1CC(O)=C(c2c(C)cc(OCC(F)(F)F)cc2C)C1=O` (stereo not drawn) [7-015], the “L: Apera spica-venti, herbicidal effect (criteria of Test Example 1)” value (Apera spica-venti [1]) was 5 (Herbicidal ratio of 90% or more (almost completely withered)), the “O: Chenopodium album, herbicidal effect” value (Chenopodium album) was 3 (Herbicidal ratio of 40% or higher and lower than 70%) and the “P: Stellaria media, herbicidal effect” value (Stellaria media) was 1 (Herbicidal ratio of 5% or higher and lower than 20%). The “Herbicidal effect grade, I: Avena fatua” value (Avena fatua [2]) was 3 (Herbicidal ratio of 40% or higher and lower than 70%), the “F: Digitaria ciliaris, herbicidal effect (criteria of Test Example 1)” value (Digitaria ciliaris [3]) was 5 (Herbicidal ratio of 90% or more (almost completely withered)) and the “Effect on crop grade, b: directly sowed rice plant” value (rice) was 5 (Herbicidal ratio of 90% or more (almost completely withered)). For the same compound, the “Herbicidal effect grade, K: Lolium multiflorum Lam.” value (Lolium multiflorum Lam. [4]) was 5 (Herbicidal ratio of 90% or more (almost completely withered)), the “Effect on crop grade, g: rapeseed” value (rapeseed [5]) was 2 (Herbicidal ratio of 20% or higher and lower than 40%) and the “R: Veronica persica, herbicidal effect” value (Veronica persica) was 4 (Herbicidal ratio of 70% or higher and lower than 90%). The “e: wheat, effect on crop” value (wheat) was 5 (Herbicidal ratio of 90% or more (almost completely withered)), the “M: Abutilon theophrasti” value (Abutilon theophrasti) was 2 (Herbicidal ratio of 20% or higher and lower than 40%) and the “K: Lolium multiflorum Lam., herbicidal effect (criteria of Test Example 1)” value (Lolium multiflorum Lam. [6]) was 5 (Herbicidal ratio of 90% or more (almost completely withered)). For the same compound, the “Herbicidal effect grade, F: Digitaria ciliaris” value (Digitaria ciliaris [7]) was 5 (Herbicidal ratio of 90% or more (almost completely withered)), the “effect on crop b” value [8] was 5 (Herbicidal ratio of 90% or more (almost completely withered)) and the “Effect on crop grade, f: beet” value (beet) was 0 (Herbicidal ratio of 5% or lower (almost no effect)). For the same compound, the “Herbicidal effect grade, J: Alopecurus myosuroides” value (Alopecurus myosuroides) was 5 (Herbicidal ratio of 90% or more (almost completely withered)), the “g: rapeseed, effect on crop (criteria of Test Example 1)” value (rapeseed [9]) was 5 (Herbicidal ratio of 90% or more (almost completely withered)) and the “N: Amaranthus retroflexus” value (Amaranthus retroflexus) was 0 (Herbicidal ratio of 5% or lower (almost no effect)). For the same compound, the “I: Avena fatua, herbicidal effect (criteria of Test Example 1)” value (Avena fatua [10]) was 5 (Herbicidal ratio of 90% or more (almost completely withered)), the “Herbicidal effect grade, C” value (Monochoria vaginalis) was 0 (Herbicidal ratio of 5% or lower (almost no effect)) and the “Herbicidal effect grade, L: Apera spica-venti” value (Apera spica-venti [11]) was 4 (Herbicidal ratio of 70% or higher and lower than 90%). The “Herbicidal effect grade, H: Echinochloa crus-galli var. crus-galli” value [12] was 5 (Herbicidal ratio of 90% or more (almost completely withered)).
`CC(=O)CC1CC(O)=C(c2c(C)cc(-c3ccc(C)cc3)cc2C)C1=O` (stereo not drawn) [7-007] was tested, and the “L: Apera spica-venti, herbicidal effect (criteria of Test Example 1)” value (Apera spica-venti [1]) was 5 (Herbicidal ratio of 90% or more (almost completely withered)), the “O: Chenopodium album, herbicidal effect” value (Chenopodium album) was 2 (Herbicidal ratio of 20% or higher and lower than 40%) and the “P: Stellaria media, herbicidal effect” value (Stellaria media) was 0 (Herbicidal ratio of 5% or lower (almost no effect)). The “Herbicidal effect grade, I: Avena fatua” value (Avena fatua [2]) was 0 (Herbicidal ratio of 5% or lower (almost no effect)), the “F: Digitaria ciliaris, herbicidal effect (criteria of Test Example 1)” value (Digitaria ciliaris [3]) was 5 (Herbicidal ratio of 90% or more (almost completely withered)) and the “Effect on crop grade, b: directly sowed rice plant” value (rice) was 4 (Herbicidal ratio of 70% or higher and lower than 90%). The “Herbicidal effect grade, K: Lolium multiflorum Lam.” value (Lolium multiflorum Lam. [4]) was 5 (Herbicidal ratio of 90% or more (almost completely withered)), the “Effect on crop grade, g: rapeseed” value (rapeseed [5]) was 0 (Herbicidal ratio of 5% or lower (almost no effect)) and the “R: Veronica persica, herbicidal effect” value (Veronica persica) was 0 (Herbicidal ratio of 5% or lower (almost no effect)). For the same compound, the “e: wheat, effect on crop” value (wheat) was 2 (Herbicidal ratio of 20% or higher and lower than 40%), the “M: Abutilon theophrasti” value (Abutilon theophrasti) was 0 (Herbicidal ratio of 5% or lower (almost no effect)) and the “K: Lolium multiflorum Lam., herbicidal effect (criteria of Test Example 1)” value (Lolium multiflorum Lam. [6]) was 5 (Herbicidal ratio of 90% or more (almost completely withered)). For the same compound, the “Herbicidal effect grade, F: Digitaria ciliaris” value (Digitaria ciliaris [7]) was 4 (Herbicidal ratio of 70% or higher and lower than 90%), the “effect on crop b” value [8] was 5 (Herbicidal ratio of 90% or more (almost completely withered)) and the “Effect on crop grade, f: beet” value (beet) was 0 (Herbicidal ratio of 5% or lower (almost no effect)). For the same compound, the “Herbicidal effect grade, J: Alopecurus myosuroides” value (Alopecurus myosuroides) was 5 (Herbicidal ratio of 90% or more (almost completely withered)), the “g: rapeseed, effect on crop (criteria of Test Example 1)” value (rapeseed [9]) was 0 (Herbicidal ratio of 5% or lower (almost no effect)) and the “N: Amaranthus retroflexus” value (Amaranthus retroflexus) was 0 (Herbicidal ratio of 5% or lower (almost no effect)). The “I: Avena fatua, herbicidal effect (criteria of Test Example 1)” value (Avena fatua [10]) was 4 (Herbicidal ratio of 70% or higher and lower than 90%), the “Herbicidal effect grade, C” value (Monochoria vaginalis) was 3 (Herbicidal ratio of 40% or higher and lower than 70%) and the “Herbicidal effect grade, L: Apera spica-venti” value (Apera spica-venti [11]) was 5 (Herbicidal ratio of 90% or more (almost completely withered)). For the same compound, the “Herbicidal effect grade, H: Echinochloa crus-galli var. crus-galli” value [12] was 5 (Herbicidal ratio of 90% or more (almost completely withered)).
